Experimental data reported in patent US20070010574A1, “Use of a trpm8-activating substance for the treatment of tumours” (priority 2002, published 2007).

Experiments:
HEK293 TRPM8 cells = test: tumor growth in hairless mice; type: in vivo; settings: male hairless mice, HEK293 TRPM8 cells subcutaneous or xenotransplanted in the prostate; 20 mg/kg daily intraperitoneal in DMSO, three weeks; vs untreated control animals
Method: Human TRPM8 cDNA was subcloned in the expression vector pcDNA3.1 and subsequently stably transfected in HEK293 cells. […] To study the effect of menthol or icilin on tumor growth in vivo 2 million HEK293 TRPM8 cells were subcutaneously injected or xenotransplanted in the prostate in male hairless mice. The test groups in each case consisted of 10 animals. The control groups were untreated or treated only with DMSO. The animals were treated by daily intraperitoneal administration of 20 mg/kg body weight icilin or menthol, dissolved in DMSO, over a time interval of three weeks. The growth of the subcutaneously injected cells was measured twice weekly over the entire test duration. Immediately after completion of the trials the “xenotransplants” were resected, weighed and preserved.

[1] = tested on: HEK293 cells transfected with TRPM8; test: soft agar assay, colony formation rate; type: cell-based; settings: TRPM8 transfected HEK293 cells vs wild type and empty vector cells; menthol 10, 100, and 100 μM in medium, substituted every fifth day; after three weeks
Method: HEK293 cells were not transfected, transfected with TRPM8 or transfected with an empty vector. The cells were used in a soft agar assay (see reference Shappel et al., Cancer Research 61:497-503 (2001)). The cells highly individually plated out and immobilized in agar are caused to grow three-dimensionally and independently of the substrate in this way. The colony formation rate permits conclusions regarding the tumorigenicity of the cells to be drawn. 1000 cells were plated out in the 6-hole plate in 2 ml of medium containing soft agar and coated with 1 ml of medium (DMEM with 10% FCS, 2mM glutamine) after the agar congealed. Menthol dissolved in ethanol was added to the medium in end concentrations of 10, 100, and 100 μM and substituted every fifth day. The solvent alone was added as a control. After three weeks the number of colonies formed was determined under the microscope.

## O=C1NC(c2cccc([N+](=O)[O-])c2)=CCN1c1ccccc1O [icilin]
HEK293 TRPM8 cells
  tumor growth: distinctly less tumor growth

## CC1CCC(C(C)C)C(O)C1 (stereo not drawn) [menthol]
[1]
  number of colonies formed (colony formation rate): distincly less colony formation
HEK293 TRPM8 cells
  tumor growth: distinctly less tumor growth
